From patent US20020137929A1, “1 - (3-heterocyclylphenyl) isothiourea, -isourea, -guanidine and -amidine herbicidal agents” (Intellectual Property Department, BASF Aktiengesellschaft, priority 1998, published 2002) come the findings set out here.

One test concerns CASOB (Sicklepod). In words: Postemergence herbicidal evaluation. In kind it is in vivo, Cassia obtusifolia. Conditions: for CASOB herbicidal rating: postemergence. Summed up: (§1)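 Visual 0–9 rating versus control (stand, vigor, malformation, size, chlorosis, overall appearance), taken four to five weeks post-spray. Two-week-old seedlings received roughly 0.0156–0.500 kg/ha active in acetone/water (50/50) with 0.5% TWEEN 20 via nozzle at 40 psi.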

Another test concerns ORYSAT (Rice, Tebonnet). Nature of the test: Preemergence herbicidal evaluation. In kind it is in vivo, Oryza sativa, (L.) Tebonnet. Conditions: rated 4-5 weeks after treatment. Summed up:
(§2)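 Scores (0–9) reflect visual comparison with control plants for stand, vigor, malformation, size and chlorosis. Compound was applied to the soil after sowing, before emergence, as an aqueous acetone spray (about 0.0156–0.500 kg/ha), and cups were kept in a greenhouse for 4–5 weeks.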

The test system of a further test is MOOVA (Monochoria). In words: Postemergence weed control under flooded paddy conditions. Type of test: in vivo, Monochoria vaginalis. Conditions: postemergence weeds. Summed up:
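Weeds 3 to 5 cm tall and rice seedlings at the 1.5 to 2.5 leaf stage were flooded, with water held 1.5 to 3 cm above the soil. Compounds in 50/50 v/v aqueous/acetone went into the flood water at about 0.0313 to 0.500 kg/ha. Visual 0-9 ratings versus control were made 3 to 4 weeks later.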

Test [1] has as its system CHEAL (Lambsquarters, Common). In words: Postemergence herbicidal evaluation. Type of test: in vivo, Chenopodium album. The conditions noted are these: for CHEAL herbicidal rating: postemergence. Summed up: as §1
In test [2] the test system is CHEAL (Lambsquarters, Common). Nature of the test: Preemergence herbicidal evaluation. Type of test: in vivo, Chenopodium album. Conditions: rated 4-5 weeks after treatment. Summed up:
as §2

For test [3], the system named is TRZAWR (Wheat, Winter, cv Riband). In words: Postemergence herbicidal evaluation. In kind it is in vivo, Triticum aestivum. Conditions: for TRZAWR herbicidal rating: postemergence. An outline of the steps: as §1

Turning to `C=CCN1C(=O)C(CC(=O)OC(C)C)SC1=Nc1cc(-n2c(=O)cc(C(F)(F)F)n(C)c2=O)c(F)cc1Cl` (centres unmarked) [Compound 66, Isopropyl 3-allyl-2-{{2-chloro-5-[3,6-dihydro-3-methyl-2,6-dioxo-4-(trifluoromethyl)-1(2H)-pyrimidinyl]-4-fluorophenyl}imino}-4-oxo-5-thiazolidineacetate], the CASOB herbicidal rating is listed as 0.0 in the test on CASOB (Sicklepod) (rate 0.0158 kg/ha), 0.0 with CASOB (Sicklepod) (rate 0.0313 kg/ha), 3.0 in the test with CASOB (Sicklepod) (rate 0.0625 kg/ha) and 6.0 with CASOB (Sicklepod) (rate 0.1250 kg/ha). The “Preemergence herbicidal rating ORYSAT” value in the test on ORYSAT (Rice, Tebonnet) (rate 0.0156 kg/ha) stood at 0.0; in the test with ORYSAT (Rice, Tebonnet) (rate 0.0313 kg/ha) it was 0.0; in the test with ORYSAT (Rice, Tebonnet) (rate 0.0625 kg/ha), 0.5; in the test with ORYSAT (Rice, Tebonnet) (rate 0.1250 kg/ha), 0.5; in the test on ORYSAT (Rice, Tebonnet) (rate 0.2500 kg/ha), 2.5; in the test on ORYSAT (Rice, Tebonnet) (rate 0.5000 kg/ha), 8.0. Further, the “Herbicidal rating MOOVA” value in the test on MOOVA (Monochoria) (Rate 0.0313 kg/ha, rated 3 to 4 weeks after treatment) was 9.0; in the test with MOOVA (Monochoria) (Rate 0.0625 kg/ha, rated 3 to 4 weeks after treatment), 9.0; with MOOVA (Monochoria) (Rate 0.1250 kg/ha, rated 3 to 4 weeks after treatment) it was 9.0; in the test on MOOVA (Monochoria) (Rate 0.2500 kg/ha, rated 3 to 4 weeks after treatment) it was 9.0. For the same compound, the CHEAL herbicidal rating in test [1] (rate 0.0158 kg/ha) turned out to be 5.0; in test [1] (rate 0.0313 kg/ha), 9.0; in test [1] (rate 0.0625 kg/ha), 9.0; in test [1] (rate 0.1250 kg/ha), 9.0. The “Preemergence herbicidal rating CHEAL” value in test [2] (rate 0.0156 kg/ha) turned out to be 4.0; in test [2] (rate 0.0313 kg/ha) it was 9.0; in test [2] (rate 0.0625 kg/ha), 9.0; in test [2] (rate 0.1250 kg/ha) it was 9.0; in test [2] (rate 0.2500 kg/ha), 9.0; in test [2] (rate 0.5000 kg/ha), 9.0. Besides, the TRZAWR herbicidal rating in test [3] (rate 0.0158 kg/ha) was 3.5; in test [3] (rate 0.0313 kg/ha), 7.0; in test [3] (rate 0.0625 kg/ha), 8.0; in test [3] (rate 0.1250 kg/ha), 7.5.

Turning to `COC(=O)CCN1C(=O)CSC1=Nc1cc(-n2c(=O)cc(C(F)(F)F)n(C)c2=O)c(F)cc1Cl` [Compound 28, Methyl 2-{{2-chloro-5-[3,6-dihydro-3-methyl-2,6-dioxo-4-(trifluoromethyl)-1(2H)-pyrimidinyl]-4-fluorophenyl}imino}-4-oxo-3-thiazolidinepropionate], the “Postemergence herbicidal rating CASOB” value with CASOB (Sicklepod) (Rate 0.0158 kg/ha) came out at 1.0; in the test on CASOB (Sicklepod) (Rate 0.0315 kg/ha), 1.0; with CASOB (Sicklepod) (Rate 0.0630 kg/ha) it was 4.0. The “Preemergence herbicidal rating ORYSAT” value in the test on ORYSAT (Rice, Tebonnet) (rate 0.0625 kg/ha) is 0.0; in the test with ORYSAT (Rice, Tebonnet) (rate 0.1250 kg/ha), 2.0; in the test on ORYSAT (Rice, Tebonnet) (rate 0.2500 kg/ha), 8.0. Further, the “Herbicidal rating MOOVA” value with MOOVA (Monochoria) (rate 0.0313 kg/ha, 3-4 weeks after treatment) was found to be 9.0; with MOOVA (Monochoria) (rate 0.0625 kg/ha, 3-4 weeks after treatment), 9.0; with MOOVA (Monochoria) (rate 0.1250 kg/ha, 3-4 weeks after treatment) it was 9.0; in the test on MOOVA (Monochoria) (rate 0.2500 kg/ha, 3-4 weeks after treatment), 9.0. The “Postemergence herbicidal rating CHEAL” value was determined as 2.0 in test [1] (Rate 0.0158 kg/ha), 4.0 in test [1] (Rate 0.0315 kg/ha) and 4.0 in test [1] (Rate 0.0630 kg/ha). In addition, the “Preemergence herbicidal rating CHEAL” value was determined as 0.0 in test [2] (rate 0.0625 kg/ha), 9.0 in test [2] (rate 0.1250 kg/ha) and 9.0 in test [2] (rate 0.2500 kg/ha). The “Postemergence herbicidal rating TRZAWR” value in test [3] (Rate 0.0158 kg/ha) amounted to 5.0; in test [3] (Rate 0.0315 kg/ha), 5.0; in test [3] (Rate 0.0630 kg/ha), 6.5.
